Experimental data from article PMC6889490, “General structural features that regulate integrin affinity revealed by atypical αVβ8” (Nature Communications, 2019).

Test system: αVβ8 headpiece
Assay: Hydrogen-deuterium exchange MS, αVβ8 headpiece
Conditions: 2.20 µM αVβ8, 6.67 µM TGF-β1 ligand peptide; from KD
Procedure: Two microliters of αVβ6 and αVβ8 stock solutions (23 and 33 µM, respectively), either alone or mixed with 100 µM TGF-β1 ligand peptide, were diluted 15-fold (to 1.53 and 2.20 µM, αVβ6 and αVβ8, respectively, and 6.67 µM TGF-β1 ligand peptide) with labeling buffer (Supplementary Table 1) at 21 °C to initiate deuterium exchange. […] At time points from 10 s to 240 m, an aliquot was removed and an equal volume of quench buffer (Supplementary Table 1) was added to adjust the pH to 2.5. Each sample (46 pmol αVβ6 or 66 pmol αVβ8) was immediately subjected to liquid chromatography-mass spectrometry analysis as described in the next paragraphs and in our PRIDE submission (PXD014348). For binding experiments, protein and ligand were allowed to equilibrate for 20 min at 21 °C before deuterium labeling.
Deuterated and control samples were digested in solution with pepsin (10 mg/ml, Sigma P6887; Lot#SLBL1721V) for 5 min on ice, and then injected into an M-class Acquity UPLC with HDX technology (Waters)[32]. […]
Peptides were identified using PLGS 3.0.1 (Waters, 720001408EN) using six replicates of undeuterated αVβ6 and six replicates of undeuterated αVβ8. […] The relative amount of deuterium in each peptide was determined by subtracting the centroid mass of the undeuterated form of each peptide from the deuteratered form, at each time point, for each condition. […]

predicted binding to integrin: 99.6%
Substance: G^213RRGDLATIHG^223 [TGF-β1 ligand peptide]
